{
  "source": "patent US12214092B2",
  "about": "“Systems and methods for treating biological fluids” (Cerus Corporation, priority 2017, dated 2025)",
  "key": {"P. acnes": {"test_system": "P. acnes", "test": "Amotosalen and UV light (265-385 nm LEDs) treatment of P. acnes in plasma, colony forming unit assay", "format": "cell-based", "details": "15 μM amotosalen, ~6.4 J/cm^2, plasma", "source_text": "This system comprised single arrays facing (e.g., opposing) a platform positioned for the illumination of biological fluids placed on the platform (see e.g., FIG. 5). System controls provided for adjustment of the LEDs during treatment of the biological fluid samples, controlling both the timing and intensity of illumination by the LEDs to achieve a desired light UV light dose. Evaluation of photochemical conversion, photoproduct formation, pathogen inactivation, and plasma and/or platelet quality parameters are performed for each light source wavelength as described previously. In one study using the device, photochemical inactivation of various bacteria were tested for each of the above-referenced LEDs together with amotosalen. The bacteria included E. coli (Gram negative), S. epidermidis (Gram positive), and P. acnes (anaerobe). As there are known germicidal effects of ultraviolet light with wavelengths in the UVC and UVB range, the study was controlled to determine for each LED wavelength the total inactivation levels, as well as inactivation levels specifically resulting from the UV light (without added amotosalen) or the photochemical treatment process itself."}, "[1]": {"test": "Residual post-illumination amotosalen by LED wavelength in bacteria-spiked plasma, HPLC", "details": "for Pre-UV S-59: pre-illumination"}},
  "data": [
    {"smiles": "Cc1oc2c(C)c3oc(=O)cc(C)c3cc2c1COCCN", "note": "[S-59, 3-(2-aminoethoxymethyl)-2,5,9-trimethylfuro[3,2-g]chromen-7-one]", "values": [
      {"measurement": "Log reduction from S-59", "setting": "P. acnes; 265 nm", "value": 1.60, "unit": "log"},
      {"measurement": "Log reduction total", "setting": "P. acnes; 265 nm", "value": 6.03, "unit": "log"},
      {"measurement": "Log reduction from S-59", "setting": "P. acnes; 280 nm", "value": 0.71, "unit": "log"},
      {"measurement": "Log reduction total", "setting": "P. acnes; 280 nm", "value": 1.09, "unit": "log"},
      {"measurement": "Log reduction from S-59", "setting": "P. acnes; 310 nm", "value": 5.67, "unit": "log"},
      {"measurement": "Log reduction total", "setting": "P. acnes; 310 nm", "value": 6.99, "unit": "log"},
      {"measurement": "Log reduction from S-59", "setting": "P. acnes; 325 nm", "value": 6.54, "unit": "log"},
      {"measurement": "Log reduction total", "setting": "P. acnes; 325 nm", "value": 6.69, "unit": "log"},
      {"measurement": "Log reduction from S-59", "setting": "P. acnes; 340 nm", "value": 6.78, "unit": "log"},
      {"measurement": "Log reduction total", "setting": "P. acnes; 340 nm", "value": 6.99, "unit": "log"},
      {"measurement": "Log reduction from S-59", "setting": "P. acnes; 365 nm", "value": 6.67, "unit": "log"},
      {"measurement": "Log reduction total", "setting": "P. acnes; 365 nm", "value": 6.99, "unit": "log"},
      {"measurement": "Log reduction from S-59", "setting": "P. acnes; 385 nm", "value": 1.64, "unit": "log"},
      {"measurement": "Log reduction total", "setting": "P. acnes; 385 nm", "value": 1.97, "unit": "log"},
      {"measurement": "Pre-UV S-59", "setting": "[1]; E. coli plasma, 15 μM arm, 265 nm arm", "value": 16.0, "unit": "µM"},
      {"measurement": "Post-UV S-59", "setting": "[1]; E. coli plasma, 15 μM arm, 265 nm, ~3 J/cm^2", "value": 12.7, "unit": "µM"},
      {"measurement": "Pre-UV S-59", "setting": "[1]; E. coli plasma, 15 μM arm, 280 nm arm", "value": 16.2, "unit": "µM"},
      {"measurement": "Post-UV S-59", "setting": "[1]; E. coli plasma, 15 μM arm, 280 nm, ~3 J/cm^2", "value": 12.6, "unit": "µM"},
      {"measurement": "Pre-UV S-59", "setting": "[1]; E. coli plasma, 15 μM arm, 310 nm arm", "value": 15.4, "unit": "µM"},
      {"measurement": "Post-UV S-59", "setting": "[1]; E. coli plasma, 15 μM arm, 310 nm, ~3 J/cm^2", "value": 5.5, "unit": "µM"},
      {"measurement": "Pre-UV S-59", "setting": "[1]; E. coli plasma, 15 μM arm, 325 nm arm", "value": 15.8, "unit": "µM"},
      {"measurement": "Post-UV S-59", "setting": "[1]; E. coli plasma, 15 μM arm, 325 nm, ~3 J/cm^2", "value": 4.0, "unit": "µM"},
      {"measurement": "Pre-UV S-59", "setting": "[1]; E. coli plasma, 15 μM arm, 340 nm arm", "value": 16.0, "unit": "µM"},
      {"measurement": "Post-UV S-59", "setting": "[1]; E. coli plasma, 15 μM arm, 340 nm, ~3 J/cm^2", "value": 3.7, "unit": "µM"},
      {"measurement": "Pre-UV S-59", "setting": "[1]; E. coli plasma, 15 μM arm, 365 nm arm", "value": 16.2, "unit": "µM"},
      {"measurement": "Post-UV S-59", "setting": "[1]; E. coli plasma, 15 μM arm, 365 nm, ~3 J/cm^2", "value": 8.1, "unit": "µM"},
      {"measurement": "Pre-UV S-59", "setting": "[1]; E. coli plasma, 15 μM arm, 385 nm arm", "value": 15.3, "unit": "µM"},
      {"measurement": "Post-UV S-59", "setting": "[1]; E. coli plasma, 15 μM arm, 385 nm, ~3 J/cm^2", "value": 14.3, "unit": "µM"},
      {"measurement": "Pre-UV S-59", "setting": "[1]; E. coli plasma, 150 μM arm, 265 nm arm", "value": 148.9, "unit": "µM"},
      {"measurement": "Post-UV S-59", "setting": "[1]; E. coli plasma, 150 μM arm, 265 nm, ~3 J/cm^2", "value": 115.0, "unit": "µM"},
      {"measurement": "Pre-UV S-59", "setting": "[1]; E. coli plasma, 150 μM arm, 280 nm arm", "value": 152.7, "unit": "µM"},
      {"measurement": "Post-UV S-59", "setting": "[1]; E. coli plasma, 150 μM arm, 280 nm, ~3 J/cm^2", "value": 148.1, "unit": "µM"},
      {"measurement": "Pre-UV S-59", "setting": "[1]; E. coli plasma, 150 μM arm, 310 nm arm", "value": 151.1, "unit": "µM"},
      {"measurement": "Post-UV S-59", "setting": "[1]; E. coli plasma, 150 μM arm, 310 nm, ~3 J/cm^2", "value": 56.8, "unit": "µM"},
      {"measurement": "Pre-UV S-59", "setting": "[1]; E. coli plasma, 150 μM arm, 325 nm arm", "value": 141.6, "unit": "µM"},
      {"measurement": "Post-UV S-59", "setting": "[1]; E. coli plasma, 150 μM arm, 325 nm, ~3 J/cm^2", "value": 52.1, "unit": "µM"},
      {"measurement": "Pre-UV S-59", "setting": "[1]; E. coli plasma, 150 μM arm, 340 nm arm", "value": 142.2, "unit": "µM"},
      {"measurement": "Post-UV S-59", "setting": "[1]; E. coli plasma, 150 μM arm, 340 nm, ~3 J/cm^2", "value": 48.1, "unit": "µM"},
      {"measurement": "Pre-UV S-59", "setting": "[1]; E. coli plasma, 150 μM arm, 365 nm arm", "value": 153.2, "unit": "µM"},
      {"measurement": "Post-UV S-59", "setting": "[1]; E. coli plasma, 150 μM arm, 365 nm, ~3 J/cm^2", "value": 79.8, "unit": "µM"},
      {"measurement": "Pre-UV S-59", "setting": "[1]; E. coli plasma, 150 μM arm, 385 nm arm", "value": 148.4, "unit": "µM"},
      {"measurement": "Post-UV S-59", "setting": "[1]; E. coli plasma, 150 μM arm, 385 nm, ~3 J/cm^2", "value": 135.1, "unit": "µM"},
      {"measurement": "Pre-UV S-59", "setting": "[1]; P. acnes plasma, 15 μM arm, 265 nm arm", "value": 15.7, "unit": "µM"},
      {"measurement": "Post-UV S-59", "setting": "[1]; P. acnes plasma, 15 μM arm, 265 nm, ~6.4 J/cm^2", "value": 10.8, "unit": "µM"},
      {"measurement": "Pre-UV S-59", "setting": "[1]; P. acnes plasma, 15 μM arm, 280 nm arm", "value": 15.7, "unit": "µM"},
      {"measurement": "Post-UV S-59", "setting": "[1]; P. acnes plasma, 15 μM arm, 280 nm, ~6.4 J/cm^2", "value": 16.0, "unit": "µM"},
      {"measurement": "Pre-UV S-59", "setting": "[1]; P. acnes plasma, 15 μM arm, 310 nm arm", "value": 15.7, "unit": "µM"},
      {"measurement": "Post-UV S-59", "setting": "[1]; P. acnes plasma, 15 μM arm, 310 nm, ~6.4 J/cm^2", "value": 2.2, "unit": "µM"},
      {"measurement": "Pre-UV S-59", "setting": "[1]; P. acnes plasma, 15 μM arm, 325 nm arm", "value": 15.7, "unit": "µM"},
      {"measurement": "Post-UV S-59", "setting": "[1]; P. acnes plasma, 15 μM arm, 325 nm, ~6.4 J/cm^2", "value": 1.1, "unit": "µM"},
      {"measurement": "Pre-UV S-59", "setting": "[1]; P. acnes plasma, 15 μM arm, 340 nm arm", "value": 15.7, "unit": "µM"},
      {"measurement": "Post-UV S-59", "setting": "[1]; P. acnes plasma, 15 μM arm, 340 nm, ~6.4 J/cm^2", "value": 1.4, "unit": "µM"},
      {"measurement": "Pre-UV S-59", "setting": "[1]; P. acnes plasma, 15 μM arm, 365 nm arm", "value": 15.7, "unit": "µM"},
      {"measurement": "Post-UV S-59", "setting": "[1]; P. acnes plasma, 15 μM arm, 365 nm, ~6.4 J/cm^2", "value": 5.5, "unit": "µM"},
      {"measurement": "Pre-UV S-59", "setting": "[1]; P. acnes plasma, 15 μM arm, 385 nm arm", "value": 15.7, "unit": "µM"},
      {"measurement": "Post-UV S-59", "setting": "[1]; P. acnes plasma, 15 μM arm, 385 nm, ~6.4 J/cm^2", "value": 13.7, "unit": "µM"},
      {"measurement": "Pre-UV S-59", "setting": "[1]; S. epidermidis plasma, 15 μM arm, 265 nm arm", "value": 14.4, "unit": "µM"},
      {"measurement": "Post-UV S-59", "setting": "[1]; S. epidermidis plasma, 15 μM arm, 265 nm, ~3 J/cm^2", "value": 13.0, "unit": "µM"},
      {"measurement": "Pre-UV S-59", "setting": "[1]; S. epidermidis plasma, 15 μM arm, 280 nm arm", "value": 14.8, "unit": "µM"}
    ]}
  ]
}
